The record followed here is patent EP0031104A1, “Thiazolidine compounds, processes for their preparation and pharmaceutical compositions containing them” (SANTEN PHARMACEUTICAL CO., LTD., priority 1979, dated 1981).

One data set deals with T1, aldose reductase (Rattus norvegicus, UniProt P07943).
T1 construct: Aldose reductase is purified from rat lenses; from tissue; host or cells: rat lens
Description: Aldose reductase inhibition (optical density at 340 nm, Kinoshita's method). Type of data set: biochemical.

Another data set is described as follows: Acute toxicity test. Conditions: mouse, in vivo, iv. As for the experimental part: The male ddy-std. strain mice (4 weeks of age, weighing 19-21g) were placed in a breeding room of constant temperature and humidity (23+1°C, 55+5%) and fed freely pellet diet (CE-2, Clea Japan, Inc.) and water ad. libitum for a week. The mice showing the normal growth were selected for the experiment.
Test compounds are dissolved in distilled water and administered (i.v.) in a dose of 0.5ml/20g body weight.

Where [1] appears, read: aldose reductase purified from rat lenses, pH 6.2, DL glyceraldehyde, NADPH, read-out: IC50(M) Molar concentration of a compound producing 50% inhibition of aldose reductase.

Read-outs that look alike come from different tables or passages of the source.

Description for aldose reductase: Aldose reductase is purified from rat lenses according to the method of Hoyman et al. [J. Biol. Chem., 240, 877 (1965)]. Action of the compounds (I) of this invention is evaluated by measurement of optical density according to the J.H. Kinoshita's method [Invest.

For the molecule `O=C(O)CCCCCCCC(=O)N1C(c2cccc([N+](=O)[O-])c2)SC[C@H]1C(=O)O` (stereo partly drawn) [compound 22], at aldose reductase (setting [1]), the IC50 is 8.2e-10 M. As a reminder, the LD50 is the dose expected to kill half of the subjects tested. A lower LD50 goes with a more toxic substance. On to `O=C(O)[C@@H]1CSC(c2cccc([N+](=O)[O-])c2)N1C(=O)CCCCCCCC(=O)N1C(c2cccc([N+](=O)[O-])c2)SC[C@H]1C(=O)O` (stereo partly drawn) [compound 47, (4R,4'R)-3,3'-(nonanedioyl)bis-[2-(3-nitrophenyl)-4-thiazolidinecarboxylic acid]], for which, at aldose reductase, the IC50 is 1.6e-10 M. Besides, the LD50 in the data set “Acute toxicity test” (male ddy-std. strain mice, dissolved in distilled water) was 1000 to 1500 mg/kg. For `N#Cc1cccc(C2SC[C@@H](C(=O)O)N2C(=O)CCCCCCCCC(=O)N2C(c3cccc(C#N)c3)SC[C@H]2C(=O)O)c1` (stereo partly drawn) [compound 56], at aldose reductase (setting [1]), the IC50 is 1.7e-09 M. This molecule returned an LD50 in the data set “Acute toxicity test” of 1000 to 1500 mg/kg. As for `O=C(O)[C@@H]1CSC(c2cccc([N+](=O)[O-])c2)N1C(=O)CCCCCCCCC(=O)N1C(c2cccc([N+](=O)[O-])c2)SC[C@H]1C(=O)O` (stereo partly drawn) [compound 57], the IC50 against aldose reductase amounted to 5.4e-09 M.
